From US7563623B2, “Biosensor” (FUJIFILM Corporation, priority 2006, dated 2009)
Where two headings read alike, the source gives them in different places.

Test: Solubility of SAM compounds in water, visual observation after standing at 25° C. for one day
Type: physicochemical
Conditions: for solubility at 1 day: water, 25 °C, thermodynamic from solid, 25° C., one day, visual observation, read-out: Solubility (solvent (H2O) allowed to stand at 25° C. for one day); for water solubility (summary in words): conclusion from Table 1
Protocol: The mixtures were allowed to stand at 25° C. for one day, followed by observation. […] The symbol “x” indicates a resultant in which precipitation and sedimentation were observed, the symbol “Δ” indicates a resultant in which opacity was observed, and the symbol “◯” indicates a resultant having an achromatic and transparent color. • 16-Hydroxy-1-hexadecanethiol (Frontier Scientific) • 11-Hydroxy-1-undecanethiol (Aldrich) • 8-Hydroxy-1-octanethiol (Aldrich) • 6-Hydroxy-1-hexanethiol (Aldrich) • 11-Amino-1-undecanethiol, hydrochloride (Dojindo Laboratories) • 8-Amino-1-octanethiol, hydrochloride (Dojindo Laboratories) • 6-Amino-1-hexanethiol, hydrochloride (Dojindo Laboratories)

Compound	solubility at 1 day (SAM concentration 0.1 mM) [mM]	solubility at 1 day (SAM concentration 1 mM) [mM]	solubility at 1 day (SAM concentration 5 mM) [mM]	solubility at 1 day (SAM concentration 20 mM) [mM]	water solubility (summary in words)
OCCCCCCCCCCCS [11-Hydroxy-1-undecanethiol]	< 0.1	< 1	< 5	< 20	–
Cl.NCCCCCCCCCCCS [11-Amino-1-undecanethiol, hydrochloride]	–	< 1	< 5	< 20	–
Cl.NCCCCCCCCS [8-Amino-1-octanethiol, hydrochloride]	> 0.1	> 1	> 5	> 20	good water solubility
OCCCCCCS [6-Hydroxy-1-hexanethiol]	> 0.1	> 1	> 5	< 20	good water solubility
OCCCCCCCCS [8-Hydroxy-1-octanethiol]	> 0.1	> 1	< 5	< 20	good water solubility
Cl.NCCCCCCS [6-Amino-1-hexanethiol, hydrochloride]	> 0.1	> 1	> 5	> 20	good water solubility
OCCCCCCCCCCCCCCCCS [16-Hydroxy-1-hexadecanethiol]	< 0.1	< 1	< 5	< 20	–
